Measured values reported in publication PMC12009420, “Dynamically chiral phosphonic acid-type metallo-β-lactamase inhibitors” (Communications Chemistry, 2025).

Key:
[1] = target: VIM-2 (Escherichia coli, UniProt Q5U7L7); test: Enzyme steady state kinetic studies (inhibitor 5g and VIM-2); type: biochemical; conditions: for Ki / Vmax: nitrocefin
Protocol: Enzyme steady state kinetic studies were performed to determine the mechanism of inhibition using inhibitor 5g and VIM-2 (Section 7, Supplementary Information). […] Assays were conducted in triplicates on a 96 well plate. Absorbance was measured at 482 nm using a SpectraMax 190 plate reader. Solutions of 300 μL consisting of buffer, purified enzyme (0.3 nM VIM-2), inhibitor 5g and reporter substrate nitrocefin with final 2.5% DMSO were incubated in triplicates on a 96 well plate for 5 min at 30 °C. Buffer solution consisted of 50 mM HEPES pH 7.2, 50 μM ZnSO4 and 0.4 mg/ml bovine serum albumin.
7. Enzyme kinetic studies
Enzyme steady state kinetic studies were performed to determine the mechanism of inhibition using inhibitor 5g and VIM-2. Km’, Ki and Vmax values were determined (Table S6).
For data analysis, SimFit software was used to fit the initial reaction velocities (v₀) to a Michaelis-Menten (1:1) model (Figure S40a). […]
Table S6. Kinetic parameters (Km’, Ki and vmax values) of inhibitor 5g against VIM-2 using nitrocefin as reporter substrate.
Figure S40. a, Michaelis-Menten fitting of the substrate concentration dependence of initial reaction velocities. b, Double reciprocal plot of the data in a, for VIM-2 in the absence and presence of inhibitor 5g at two concentrations (36 μM and 72 μM) using nitrocefin as substrate. [I] is the concentration of inhibitor 5g.

[2] = Long term stability in buffer with 2.5% DMSO (LC-MS); type: physicochemical; conditions: 20 mM KPO4, 0.1 mM ZnCl2, pH 7.0 + 2.5% DMSO; LC-MS 254 nm
Excerpt: Reagents, reactants, solvents and drying agents for synthesis, work-up and purification were purchased from commercial vendors (Sigma-Aldrich, VWR, Merck, Fluorochem, Thermo Fisher Scientific, Solveco), and if not stated otherwise they were used without further purification. Reactions and long term stability of the final compounds in buffer were monitored using LC-MS (Agilent 1260 Infinity II) equipped with an ESI-Q detector (Infinitylab LC-MSD) using Agilent InfinityLab Poroshell 120 C18 columns (2.7 μm, ϕ 2.1 mm L 50 mm or 2.7 μm, ϕ 4.6 mm L 50 mm). The intermediates were purified using VWR silica gel 60 (40–63 μm) with a Biotage Isolera One flash column chromatography instrument. The final products were purified with preparative RP-HPLC (VWR LaPrep P110) with single wavelength detection (254 nm), using a Kinetex C8 column (5 μm, 100 Å, ϕ 21.2 mm L 250 mm) and gradients of CH3CN/H2O + 0.1% formic acid as the mobile phase at a 10 mL/min flow rate. Analytical HPLC data were acquired on a VWR LaChrome ELITE system using an ACE3 C8 (3 μm, 300 Å, ϕ 3.0 mm L 100 mm) or a Kinetex C18 columns (5 μm, 100 Å, ϕ 3.0 mm L 150 mm). NMR spectra were recorded on a Varian Agilent MR400-DD2 400 MHz spectrometer equipped with a OneNMR probe, Bruker Avance Neo 500 MHz spectrometer equipped with a cryogenic TXO probe, or a Bruker Avance Neo 600 MHz spectrometer equipped with a TCI cryogenic probe. The chemical shifts are reported using the residual solvent signal as an indirect reference to TMS.
4. Long term stability of the final compounds in buffer with 2.5% DMSO
The long term stability of the final compounds in buffer (20 mM KPO4, 0.1 mM ZnCl2, pH 7.0 + 2.5% DMSO) were monitored using LC-MS (Agilent 1260 Infinity II) equipped with an ESI-Q detector (Infinitylab LC-MSD) using Agilent InfinityLab Poroshell 120 C18 column (2.7 μm, ϕ 4.6 mm L 50 mm) at 254 nm with a 7 min long gradient method (5% to 95% CH3CN) of CH3CN/H2O + 0.1% formic acid as the mobile phase at a 1.0 mL/min flow rate. The samples were measured right after dissolving them in buffer, and after 1 month of keeping the same samples dissolved in the same buffer. The main peaks (> 95%) and impurities with > 1% are […]
Figure S14. Compound 5a right after dissolving it in buffer.
Figure S15. Compound 5a kept in buffer for 1 month. […]

[3] = target: T1, 15N-labelled VIM-2 (Escherichia coli, UniProt Q5U7L7); test: 1H,15N-HSQC titration of VIM-2; type: binding; conditions: 10 equivalents of compound, 600 MHz, pH 7.0, 25 °C
T1 construct: made in house
Protocol: The ^1H, ^15N-HSQC spectra for the titration experiments were recorded on a Bruker Avance Neo 600 MHz spectrometer equipped with a 5 mm TCI cryogenic probe at 25 °C. The U-[^15N]-labeled VIM-2 was prepared in a buffer of 20 mM KPO4, 0.1 mM ZnCl2, at pH 7.0, containing 85% H2O/15% D2O at a concentration of 0.25 mM. The U-[^15N]-labeled NDM-1 was used in a buffer of 20 mM HEPES, 0.1 mM ZnCl2, at pH 7.0, containing 85% H2O/15% D2O at a concentration of 0.25 mM. The ligands 5d, 5g, 5i, 5j (for VIM-2 titrations) and 5 f (for NDM-1 titration) were dissolved in the same buffer as the corresponding enzymes. Spectra were recorded using solvent suppression, 1024 points in f1, 16 transients, 512 increments in f2 and a relaxation delay of 0.2 s. The titrations were carried out with 0, 0.25, 0.50, 1.00, 1.50, 2.25, 3.00, 4.00, 5.00, 7.00, 10.0 equivalents of the inhibitors.
Figure S47. Superimposition of the 1H,15N-HSQC spectrum (600 MHz, pH 7.0, 25 °C) of
VIM-2 in the absence (blue) and in the presence (green) of 10 molar equivalent of compound
5j. Buffer: 20 mM KPO4, 0.1 mM ZnCl2, with 15% D2O.
Chemical shift perturbation values (CSP, ΔδNH) were calculated as the weighted average of
the chemical shift changes in f1 (ΔδN) and f2 (ΔδH) dimensions using the following equation 8:
∆δ = √∆δ 2 + ( N ); R = 6.5
Figure S48. Linear regression of the chemical shift perturbations of compound 5g (IC50 =
12 μM) as a function of the chemical shift perturbations of compounds 5c (yellow circle), 5d
(grey square), 5i (green triangle) and 5j (blue circle) for VIM-2. The data of the studied […]

[4] = target: GIM-1 (Pseudomonas aeruginosa, UniProt Q704V1); test: Enzymatic metallo-β-lactamase assay on purified GIM-1; type: biochemical; conditions: approximated from Dixon plots (1/v vs [I]) at one constant substrate concentration; ± SE; read-out: Estimated inhibition constant Ki GIM-1
Chain of GIM-1 (Q704V1 entry or part of it): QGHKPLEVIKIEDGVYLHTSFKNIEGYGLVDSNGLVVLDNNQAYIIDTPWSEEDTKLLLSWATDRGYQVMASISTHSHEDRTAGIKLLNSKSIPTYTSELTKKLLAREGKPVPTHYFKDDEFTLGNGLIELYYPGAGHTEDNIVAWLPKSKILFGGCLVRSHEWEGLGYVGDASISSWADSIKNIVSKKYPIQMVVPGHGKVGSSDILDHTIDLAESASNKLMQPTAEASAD

O=C(NC(c1ccccc1O)P(=O)(O)O)c1scc2c1CCCC2 (stereo not shown) [5g]
Ki ([1]; Michaelis-Menten fit and Lineweaver-Burk plot, 30 °C): 36 ± 3.3 µM | Ki ([1]; [I] 36 μM): 31.3 µM | Ki ([1]; [I] 72 μM): 40.7 µM | inhibition mode ([1]; Michaelis-Menten model and Lineweaver-Burk plot): competitive inhibition | Vmax ([1]; [I] 36 μM): 50.0 ΔA/min | Vmax ([1]; [I] 72 μM): 47.0 ΔA/min | main peak Area% kept in buffer for 1 month [2]: 98.05% | main peak Area% right after dissolving in buffer [2]: 98.21% | Mean chemical shift perturbation, VIM-2 [3]: 0.04 ppm | Ki [4]: 113 ± 66 µM
